Source: ChEMBL document CHEMBL5257125, “Discovery of pyrido[4,3-d]pyrimidinone derivatives as novel Wee1 inhibitors” (Bioorg Med Chem, 2023)

Assays:
[1] = tested on: T47D; assay: Antiproliferative activity against human T47D cells incubated for 72 hrs by Celltiter-glo assay; assay type: functional, cell-based
[2] = molecular target: Wee1-like protein kinase (Homo sapiens, UniProt P30291); assay: Inhibition of recombinant human Wee1 (214 to end residues) incubated for 1 hr in presence of tracer 178 by fluorescence based assay
Sequence of Wee1-like protein kinase (P30291 whole entry): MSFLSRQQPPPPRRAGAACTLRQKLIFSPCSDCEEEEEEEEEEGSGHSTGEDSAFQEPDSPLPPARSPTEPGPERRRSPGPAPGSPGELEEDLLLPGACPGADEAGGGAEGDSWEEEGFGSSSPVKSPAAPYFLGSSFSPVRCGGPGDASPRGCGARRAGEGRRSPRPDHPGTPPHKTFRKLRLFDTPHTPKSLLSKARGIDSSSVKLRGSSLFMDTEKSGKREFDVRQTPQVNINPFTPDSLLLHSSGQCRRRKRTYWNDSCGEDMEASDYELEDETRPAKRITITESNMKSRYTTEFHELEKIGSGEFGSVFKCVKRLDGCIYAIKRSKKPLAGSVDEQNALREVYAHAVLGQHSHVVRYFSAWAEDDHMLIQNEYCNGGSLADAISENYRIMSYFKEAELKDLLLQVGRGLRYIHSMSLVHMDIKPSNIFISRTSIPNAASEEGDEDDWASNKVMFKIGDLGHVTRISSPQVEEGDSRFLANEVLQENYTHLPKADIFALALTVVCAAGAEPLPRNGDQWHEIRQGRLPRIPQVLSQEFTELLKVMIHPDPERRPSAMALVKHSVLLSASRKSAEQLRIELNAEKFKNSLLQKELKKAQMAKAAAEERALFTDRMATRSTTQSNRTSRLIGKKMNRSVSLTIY

[3] = tested on: MV4-11; assay: Antiproliferative activity against human MV4-11 cells incubated for 72 hrs by Celltiter-glo assay; assay type: functional, cell-based; conditions: MV4-11, 72 h
[4] = Metabolic stability in mouse liver microsomes assessed as parent compound remaining preincubated with NADPH for 5 mins followed by compound addition and measured upto 90 mins by LC-MS/MS analysis; assay type: ADME, Microsome; conditions: read-out: Stability

Row | Compound | IC50 [1] | IC50 [2] | IC50 [3] | remaining at 1.5 h [4]
1 | C[C@@H]1CN(c2ccc(Nc3cc4ncn(-c5c(Cl)cccc5Cl)c(=O)c4cn3)cc2)C[C@H](C)N1 | 4130 nM | 19 nM | 2680 nM | 
2 | C[C@@H]1CN(c2ccc(Nc3cc4ncn(-c5c(Cl)cccc5Cl)c(=O)c4cn3)cc2C(F)(F)F)C[C@H](C)N1 |  | 192 nM |  | 
3 | CN(C)CCN(C)c1ccc(Nc2cc3ncn(-c4c(Cl)cccc4Cl)c(=O)c3cn2)cc1 | 9600 nM | 70 nM | 660 nM | 60%
4 | CN1CCN(c2ccc(Nc3cc4ncn(-c5c(Cl)cccc5Cl)c(=O)c4cn3)cc2)CC1 | 14400 nM | 47 nM | 1330 nM | 
5 | N[C@H]1CCN(c2ccc(Nc3cc4ncn(-c5c(Cl)cccc5Cl)c(=O)c4cn3)cc2)C1 | 5030 nM | 40 nM | 1010 nM | 
6 | C[C@@H]1CN(c2ccc(Nc3cc4ncn(-c5c(Cl)cccc5Cl)c(=O)c4cn3)cc2C#N)C[C@H](C)N1 |  | 163 nM |  | 
7 | CN1CCC(Nc2ccc(Nc3cc4ncn(-c5c(Cl)cccc5Cl)c(=O)c4cn3)cc2)CC1 | 19200 nM | 35 nM | 1760 nM | 
8 | O=c1c2cnc(Nc3ccc(N[C@@H]4CN5CCC4CC5)cc3)cc2ncn1-c1c(Cl)cccc1Cl |  | 201 nM |  | 
9 | C[C@@H]1CN(c2ccc(Nc3cc4ncn(-c5c(Cl)cccc5Cl)c(=O)c4cn3)nc2)C[C@H](C)N1 | 2670 nM | 23 nM | 1160 nM | 
10 | CCN1CCN(c2ccc(Nc3cc4ncn(-c5c(Cl)cccc5Cl)c(=O)c4cn3)cc2)CC1 |  | 85 nM |  | 
11 | N[C@@H]1CCCN(c2ccc(Nc3cc4ncn(-c5c(Cl)cccc5Cl)c(=O)c4cn3)cc2)C1 |  | 36 nM |  | 
12 | N[C@@H]1CCN(c2ccc(Nc3cc4ncn(-c5c(Cl)cccc5Cl)c(=O)c4cn3)cc2)C1 |  | 58 nM |  | 
13 | NCC1CCN(c2ccc(Nc3cc4ncn(-c5c(Cl)cccc5Cl)c(=O)c4cn3)cc2)CC1 |  | 55 nM |  | 
14 | O=c1c2cnc(Nc3ccc(N4CCN(CCO)CC4)cc3)cc2ncn1-c1c(Cl)cccc1Cl | 13700 nM | 43 nM | 2050 nM | 
15 | CN(CCCN)c1ccc(Nc2cc3ncn(-c4c(Cl)cccc4Cl)c(=O)c3cn2)cc1 |  | 90 nM |  | 
16 | CN(C)CCCNc1ccc(Nc2cc3ncn(-c4c(Cl)cccc4Cl)c(=O)c3cn2)cc1 | 14000 nM | 79 nM | 874 nM | 22%
17 | CN1CCC(Oc2ccc(Nc3cc4ncn(-c5c(Cl)cccc5Cl)c(=O)c4cn3)cc2)CC1 |  | 93 nM |  | 
18 | CN1CCN(c2ccc(Nc3cc4ncn(-c5ccccc5F)c(=O)c4cn3)cc2)CC1 |  | 1480 nM |  | 
19 | O=c1c2cnc(Nc3ccc(N4CCNCC4)cc3)cc2ncn1-c1c(Cl)cccc1Cl | 4230 nM | 48 nM | 863 nM | > 50%
20 | CN(C)CCCN(C)c1ccc(Nc2cc3ncn(-c4c(Cl)cccc4Cl)c(=O)c3cn2)cc1 |  | 142 nM |  | 
